From US11141413B2, “Method of treating renal cell carcinoma using N-(4-(6,7-dimethoxyquinolin-4-yloxy)phenyl)-N′-(4-fluorophenyl)cyclopropane-1,1-dicarboxamide, (2S)-hydroxybutanedioate” (Exelixis, Inc., priority 2016, dated 2021)

System: patients with advanced renal cell carcinoma
Details: in vivo
Protocol: Treatment modifications, including interruptions and dose reductions, were allowed to manage adverse events. […] Patients were allowed to continue study treatment beyond radiographic progression at the discretion of the investigator. On-study crossover between treatment groups was not permitted. Safety evaluations, including physical examination, vital signs, and laboratory assessments, were conducted every 2 weeks for the first 8 weeks and then every 4 weeks thereafter. ECG assessments were performed every 4 weeks for the first 8 weeks and then every 12 weeks. A safety follow-up visit was scheduled 30 days after treatment discontinuation. Adverse events were assessed by investigators and graded according to CTCAE version 4.0.
Safety analyses were limited to patients who received any amount of study treatment.

SMILES: COc1cc2nccc(Oc3ccc(NC(=O)C4(C(=O)Nc5ccc(F)cc5)CC4)cc3)c2cc1OC [cabozantinib]
- Abdominal pain, Grade 1-2 (human): 48 (15) n (%)
- Abdominal pain, Grade 3 (human): 12 (4) n (%)
- Abdominal pain, Grade 4 (human): 0 n (%)
- Alanine aminotransferase increased, Grade 1-2 (human): 47 (14) n (%)
- Alanine aminotransferase increased, Grade 3 (human): 7 (2) n (%)
- Alanine aminotransferase increased, Grade 4 (human): 1 (<1) n (%)
- Anemia, Grade 1-2 (human): 42 (13) n (%)
- Anemia, Grade 3 (human): 19 (6) n (%)
- Anemia, Grade 4 (human): 0 n (%)
- Any AE, Grade 1-2 (human): 70 (21) n (%)
- Any AE, Grade 3 (human): 210 (63) n (%)
- Any AE, Grade 4 (human): 25 (8) n (%)
- Arthralgia, Grade 1-2 (human): 43 (13) n (%)
- Arthralgia, Grade 3 (human): 1 (<1) n (%)
- Arthralgia, Grade 4 (human): 0 n (%)
- Aspartate aminotransferase increased, Grade 1-2 (human): 55 (17) n (%)
- Aspartate aminotransferase increased, Grade 3 (human): 5 (2) n (%)
- Aspartate aminotransferase increased, Grade 4 (human): 0 n (%)
- Asthenia, Grade 1-2 (human): 49 (15) n (%)
- Asthenia, Grade 3 (human): 15 (5) n (%)
- Asthenia, Grade 4 (human): 0 n (%)
- Back pain, Grade 1-2 (human): 54 (16) n (%)
- Back pain, Grade 3 (human): 8 (2) n (%)
- Back pain, Grade 4 (human): 0 n (%)
- Blood creatinine increased, Grade 1-2 (human): 17 (5) n (%)
- Blood creatinine increased, Grade 3 (human): 1 (<1) n (%)
- Blood creatinine increased, Grade 4 (human): 0 n (%)
- Constipation, Grade 1-2 (human): 89 (27) n (%)
- Constipation, Grade 3 (human): 1 (<1) n (%)
- Constipation, Grade 4 (human): 0 n (%)
- Cough, Grade 1-2 (human): 67 (20) n (%)
- Cough, Grade 3 (human): 1 (<1) n (%)
- Cough, Grade 4 (human): 0 n (%)
- Decreased appetite, Grade 1-2 (human): 146 (44) n (%)
- Decreased appetite, Grade 3 (human): 10 (3) n (%)
- Decreased appetite, Grade 4 (human): 0 n (%)
- Diarrhea, Grade 1-2 (human): 206 (62) n (%)
- Diarrhea, Grade 3 (human): 43 (13) n (%)
- Diarrhea, Grade 4 (human): 0 n (%)
- Diarrhea, all grades (human): 249 (75%) n (%)
- Diarrhea, grade 3 or 4 (human): 43 [13%] n [%]
- Discontinuation due to a primary reason of AE (excluding disease progression) (human): 10%
- Dizziness, Grade 1-2 (human): 41 (12) n (%)
- Dizziness, Grade 3 (human): 1 (<1) n (%)
- Dizziness, Grade 4 (human): 0 n (%)
- Dry skin, Grade 1-2 (human): 37 (11) n (%)
- Dry skin, Grade 3 (human): 0 n (%)
- Dry skin, Grade 4 (human): 0 n (%)
- Dysgeusia, Grade 1-2 (human): 80 (24) n (%)
- Dysgeusia, Grade 3 (human): 0 n (%)
- Dysgeusia, Grade 4 (human): 0 n (%)
- Dyspepsia, Grade 1-2 (human): 40 (12) n (%)
- Dyspepsia, Grade 3 (human): 1 (<1) n (%)
- Dyspepsia, Grade 4 (human): 0 n (%)
- Dysphonia, Grade 1-2 (human): 68 (21) n (%)
- Dysphonia, Grade 3 (human): 2 (<1) n (%)
- Dysphonia, Grade 4 (human): 0 n (%)
- Dyspnoea, Grade 1-2 (human): 56 (17) n (%)
- Dyspnoea, Grade 3 (human): 10 (3) n (%)
- Dyspnoea, Grade 4 (human): 0 n (%)
- Edema peripheral, Grade 1-2 (human): 39 (12) n (%)
- Edema peripheral, Grade 3 (human): 0 n (%)
- Edema peripheral, Grade 4 (human): 0 n (%)
- Epistaxis, Grade 1-2 (human): 14 (4) n (%)
- Epistaxis, Grade 3 (human): 0 n (%)
- Epistaxis, Grade 4 (human): 0 n (%)
- Fatigue, Grade 1-2 (human): 159 (48) n (%)
- Fatigue, Grade 3 (human): 36 (11) n (%)
- Fatigue, Grade 4 (human): 0 n (%)
- Fatigue, all grades (human): 195 (59%) n (%)
- Fatigue, grade 3 or 4 (human): 36 [11%] n [%]
- Flatulence, Grade 1-2 (human): 33 (10) n (%)
- Flatulence, Grade 3 (human): 0 n (%)
- Flatulence, Grade 4 (human): 0 n (%)
- Grade 3 and 4 adverse events: Hyperglycemia, % (human): 1 (1) %
- Grade 3 or 4 Adverse Events: Hypercalcemia (event of interest), % (human): (1) %
- Grade 3 or 4 Adverse Events: Hyperglycemia, % (human): (1) %
- Grade 3 or 4 Adverse Events: PPES, % (human): (8) %
- Grade 3 or 4 adverse events (human): 235 (71%) n (%)
- Grade 5 adverse events regardless of causality (human): 7.9%
- Headache, Grade 1-2 (human): 43 (13) n (%)
- Headache, Grade 3 (human): 1 (<1) n (%)
- Headache, Grade 4 (human): 0 n (%)
- Hyperglycemia, Grade 1-2 (human): 15 (5) n (%)
- Hyperglycemia, Grade 3 (human): 2 (<1) n (%)
- Hyperglycemia, Grade 4 (human): 1 (<1) n (%)
- Hypertension, Grade 1-2 (human): 73 (22) n (%)
- Hypertension, Grade 3 (human): 49 (15) n (%)
- Hypertension, Grade 4 (human): 0 n (%)
- Hypertension, grade 3 or 4 (human): 49 [15%] n [%]
- Hypertriglyceridemia, Grade 1-2 (human): 17 (5) n (%)
- Hypertriglyceridemia, Grade 3 (human): 4 (1) n (%)
- Hypertriglyceridemia, Grade 4 (human): 0 n (%)
- Hypomagnesaemia, Grade 1-2 (human): 38 (12) n (%)
- Hypomagnesaemia, Grade 3 (human): 6 (2) n (%)
- Hypomagnesaemia, Grade 4 (human): 10 (3) n (%)
- Hypothyroidism, Grade 1-2 (human): 76 (23) n (%)
- Hypothyroidism, Grade 3 (human): 0 n (%)
- Hypothyroidism, Grade 4 (human): 0 n (%)
- Insomnia, Grade 1-2 (human): 32 (10) n (%)
- Insomnia, Grade 3 (human): 0 n (%)
- Insomnia, Grade 4 (human): 0 n (%)
- Mucosal inflammation, Grade 1-2 (human): 60 (18) n (%)
- Mucosal inflammation, Grade 3 (human): 5 (2) n (%)
- Mucosal inflammation, Grade 4 (human): 0 n (%)
- Muscle spasms, Grade 1-2 (human): 45 (14) n (%)
- Muscle spasms, Grade 3 (human): 0 n (%)
- Muscle spasms, Grade 4 (human): 0 n (%)
- Nausea, Grade 1-2 (human): 158 (48) n (%)
- Nausea, Grade 3 (human): 15 (5) n (%)
- Nausea, Grade 4 (human): 0 n (%)
- Nausea, all grades (human): 173 (52%) n (%)
- Overall incidence of adverse events regardless of causality (human): 100%
- Pain in extremity, Grade 1-2 (human): 46 (14) n (%)
- Pain in extremity, Grade 3 (human): 5 (2) n (%)
- Pain in extremity, Grade 4 (human): 0 n (%)
- Palmar-plantar erythrodysaesthesia syndrome, Grade 1-2 (human): 115 (35) n (%)
- Palmar-plantar erythrodysaesthesia syndrome, Grade 3 (human): 27 (8) n (%)
- Palmar-plantar erythrodysaesthesia syndrome, Grade 4 (human): 0 n (%)
- Patients with dose reductions (human): 62%
- Proteinuria, Grade 1-2 (human): 37 (11) n (%)
- Proteinuria, Grade 3 (human): 8 (2) n (%)
- Proteinuria, Grade 4 (human): 0 n (%)
- Pruritus, Grade 1-2 (human): 27 (8) n (%)
- Pruritus, Grade 3 (human): 0 n (%)
- Pruritus, Grade 4 (human): 0 n (%)
- Pyrexia, Grade 1-2 (human): 31 (9) n (%)
- Pyrexia, Grade 3 (human): 3 (<1) n (%)
- Pyrexia, Grade 4 (human): 0 n (%)
- Rash, Grade 1-2 (human): 52 (16) n (%)
- Rash, Grade 3 (human): 2 (<1) n (%)
- Rash, Grade 4 (human): 0 n (%)
- Serious adverse events ≥grade 3 (human): 130 (40%) n (%)
- Stomatitis, Grade 1-2 (human): 65 (20) n (%)
- Stomatitis, Grade 3 (human): 8 (2) n (%)
- Stomatitis, Grade 4 (human): 0 n (%)
- Study treatment discontinuation due to diarrhea (human): 0.9%
- Treatment discontinuation due to an adverse event not related to disease progression (human): 12%
- Vomiting, Grade 1-2 (human): 106 (32) n (%)
- Vomiting, Grade 3 (human): 7 (2) n (%)
- Vomiting, Grade 4 (human): 0 n (%)
- Weight decreased, Grade 1-2 (human): 105 (32) n (%)
- Weight decreased, Grade 3 (human): 9 (3) n (%)
- Weight decreased, Grade 4 (human): 0 n (%)
- Grade 5 adverse events assessed as treatment-related: One
